Measured values published in patent US20230149420A1, “ANTI-INFLAMMATORY IMMUNOENHANCER” (SCENT SCIENCE INTERNATIONAL INC., priority 2020, published 2023).

Experiments:
[1] = system: monocytes in the peripheral blood; experiment: flow cytometry of monocytes in peripheral blood, 2MT i.p./odor, corticosterone (Example 3); type: in vivo, C57/BL6 mice
Description: (§1) About 3-month-old C57/BL6 mice were intraperitoneally administered with 200 μl of saline (control) or 1% 2MT solution (dissolved in saline). Blood was collected 16 hr later, and the number of various leukocytes in the peripheral blood was measured by a flow cytometry method by peroxidase staining and a two-angle laser flow cytometry method. The ratios of neutrophils and monocytes in the peripheral blood under respective conditions that were clarified by the measurement are shown.

[2] = system: peripheral blood mononuclear cells (PBMC); experiment: scRNAseq gene expression changes in PBMC cell clusters, control vs 2MT (Example 2); type: in vivo, C57/BL6 mice; conditions: 2MT i.p. vs control, 16 hr
Description: About 3-month-old C57/BL6 mice were intraperitoneally administered with 200 μl of saline (control) or 1% 2MT solution (dissolved in saline). Blood was collected 16 hr later, and peripheral blood mononuclear cells (PBMC) were separated using Ficoll Paque PREMIUM 1.084 (GE Healthcare). A single cell RNA cDNA library was prepared from the separated cells by using the 10× Chromium preparation system, Chromium Single Cell 3′ Library & Gel Bead Kit v3, and sequencing was performed using the illumina HiSeq. The obtained scRNAseq data was analyzed according to the method shown in Non-Patent Literatures 4 and 5. The results of clustering using the gene expression of each cell as an index were visualized by tSNE, and the results are shown in FIG. 1A-C. […] Based on the data of scRNAseq performed in Example 1, the comparison results of the changes in the expression of each gene in the cells present in each cluster between the control conditions and the 2MT administration conditions are shown in FIG. 2. The genes whose expression changed by 2MT stimulation are shown on the top of the table, and the functional categories of the genes are shown above them. The numbers in the table indicate gene expression levels, and the density of shading indicates the degree of increase in gene expression.

[3] = system: monocytes in the whole blood cells; experiment: ratio of monocytes in whole blood cells, Siemens Advia 120 (Examples 10, 11); type: in vivo, C57/BL6 mice; conditions: 200 μl of 1% solution i.p., blood 16 hr later, vs saline
Description: About 3-month-old C57/BL6 mice were intraperitoneally injected with 200 μl of saline (control) or 1% solution of respective compounds (dissolved in saline). Blood was collected 16 hr later, and the ratio of monocytes in the whole blood cells was measured using Siemens Advia 120.
About 3-month-old C57/BL6 mice were intraperitoneally injected with 200 μl of saline (control) or 1% allyl isothiocyanate solution (dissolved in saline). Blood was collected 16 hr later, and the ratio of monocytes in the whole blood cells was measured using Siemens Advia 120.

[4] = system: neutrophils in the peripheral blood; experiment: flow cytometry of neutrophils in peripheral blood, 2MT i.p./odor, corticosterone (Example 3); type: in vivo, C57/BL6 mice
Description: as §1

[5] = system: peripheral blood mononuclear cells (PBMC); experiment: scRNAseq classification of PBMC after intraperitoneal 2MT (Example 1); type: in vivo, C57/BL6 mice; conditions: 200 μl of 1% 2MT solution i.p., blood 16 hr later
Description: About 3-month-old C57/BL6 mice were intraperitoneally administered with 200 μl of saline (control) or 1% 2MT solution (dissolved in saline). Blood was collected 16 hr later, and peripheral blood mononuclear cells (PBMC) were separated using Ficoll Paque PREMIUM 1.084 (GE Healthcare). A single cell RNA cDNA library was prepared from the separated cells by using the 10× Chromium preparation system, Chromium Single Cell 3′ Library & Gel Bead Kit v3, and sequencing was performed using the illumina HiSeq. The obtained scRNAseq data was analyzed according to the method shown in Non-Patent Literatures 4 and 5. The results of clustering using the gene expression of each cell as an index were visualized by tSNE, and the results are shown in FIG. 1A-C.

[6] = blood stress hormone (Corticosterone) after 2MT stimulation; type: in vivo
[7] = system: monocytes in the peripheral blood; experiment: number of monocytes in peripheral blood, Siemens Advia 120 (Examples 6, 7); type: in vivo, C57/BL6 mice; conditions: 200 μl of 1% solution i.p., blood 16 hr later, vs saline
Description: About 3-month-old C57/BL6 mice were intraperitoneally injected with 200 μl of saline (control) or 1% solution of respective compounds (dissolved in saline). Blood was collected 16 hr later, and the number of monocytes in the peripheral blood was measured using Siemens Advia 120.
About 3-month-old C57/BL6 mice were intraperitoneally injected with 200 μl of saline (control) or 1% allyl isothiocyanate solution (dissolved in saline). Blood was collected 16 hr later, and the number of monocytes in the peripheral blood was measured using Siemens Advia 120.

[8] = system: neutrophils in the peripheral blood; experiment: number of neutrophils in peripheral blood, Siemens Advia 120 (Examples 4, 5); type: in vivo, C57/BL6 mice; conditions: 200 μl of 1% solution i.p., blood 16 hr later, vs saline
Description: About 3-month-old C57/BL6 mice were intraperitoneally injected with 200 μl of saline (control) or 1% solution of respective compounds (dissolved in saline). Blood was collected 16 hr later, and the number of neutrophils in the peripheral blood was measured using Siemens Advia 120.

[9] = system: neutrophils in the whole blood cells; experiment: ratio of neutrophils in whole blood cells, Siemens Advia 120 (Examples 12, 13); type: in vivo, C57/BL6 mice; conditions: 200 μl of 1% solution i.p., blood 16 hr later, vs saline
Description: About 3-month-old C57/BL6 mice were intraperitoneally injected with 200 μl of saline (control) or 1% solution of respective compounds (dissolved in saline). Blood was collected 16 hr later, and the ratio of neutrophils in the whole blood cells was measured using Siemens Advia 120.

[10] = system: basophils in the peripheral blood; experiment: number of basophils in peripheral blood, Siemens Advia 120 (Example 8); type: in vivo, C57/BL6 mice; conditions: 200 μl of 1% solution i.p., blood 16 hr later, vs saline
Description: About 3-month-old C57/BL6 mice were intraperitoneally injected with 200 μl of saline (control) or 1% solution of respective compounds (dissolved in saline). Blood was collected 16 hr later, and the number of basophils in the peripheral blood was measured using Siemens Advia 120.

[11] = system: basophils in the whole blood cells; experiment: ratio of basophils in whole blood cells, Siemens Advia 120 (Example 14); type: in vivo, C57/BL6 mice; conditions: 200 μl of 1% solution i.p., blood 16 hr later, vs saline
Description: About 3-month-old C57/BL6 mice were intraperitoneally injected with 200 μl of saline (control) or 1% solution of respective compounds (dissolved in saline). Blood was collected 16 hr later, and the ratio of basophils in the whole blood cells was measured using Siemens Advia 120.

[12] = system: lymphocytes in the whole blood cells; experiment: ratio of lymphocytes in whole blood cells, Siemens Advia 120 (Example 15); type: in vivo, C57/BL6 mice; conditions: 1% solution i.p., blood 16 hr later, vs saline
Description: About 3-month-old C57/BL6 mice were intraperitoneally injected with […] saline (control) or 1% solution of respective compounds (dissolved in saline). Blood was collected 16 hr later, and the ratio of lymphocytes in the whole blood cells was measured using Siemens Advia 120.

[13] = system: lymphocytes in the peripheral blood; experiment: number of lymphocytes in peripheral blood, Siemens Advia 120 (Example 9); type: in vivo, C57/BL6 mice; conditions: 200 μl of 1% solution i.p., blood 16 hr later, vs saline
Description: About 3-month-old C57/BL6 mice were intraperitoneally injected with 200 μl of saline (control) or 1% solution of respective compounds (dissolved in saline). Blood was collected 16 hr later, and the number of lymphocytes in the peripheral blood was measured using Siemens Advia 120.

[14] = intraperitoneal injection vs saline i.p., blood 16 hr later

Row | Molecule | ratio of monocytes in the whole blood cells [3] | number of monocytes in the peripheral blood [7] | neutrophils in the peripheral blood (number) [8] | ratio of neutrophils in the whole blood cells [9] | number of basophils in the peripheral blood [10] | number of lymphocytes in the peripheral blood [13] | further results
1 | CC1=NCCS1 [2-Methyl-2-thiazoline] | increases | increase | increase | increases | – | – | number of monocytes [1, 14]: increased; number of monocytes ([1]; odor stimulation vs no odor): increased; expression levels of Ccr1, Ccr2, Ccr12, and Cxc12 (genes that promote blood cell migration) [2]: increased; expression levels of Lyz2, F13a1, Cd14, Chil3, and Hp (biological defense response) [2]: increased; expression levels of Nfkbia, Nfkbiz, and Socs3 (suppressors of NF-κB and JAK-STAT pathways) [2]: increased; number of neutrophils [4, 14]: increased; number of neutrophils ([4]; odor stimulation vs no odor): increased; numbers of monocytes (Mono 1, Mono 2) and dendritic cells (DC) ([5]; vs saline): drastically increases; dendritic cells in PBMC ([5]; control 0.83%): 2.2%; percentage of monocytes in PBMC ([5]; control 3.7%): 23.7%; blood stress hormone (Corticosterone) [6]: increases
2 | CC1CCC(C)O1 (stereo not drawn) [2,5-Dimethyltetrahydrofuran] | increases | – | – | – | increases | – | ratio of basophils in the whole blood cells [11]: increases
3 | CCC1CSC(C)=N1 (stereo not drawn) [4-Ethyl-2-methyl-thiazoline] | increases | – | increase | increases | – | – | ratio of lymphocytes in the whole blood cells [12]: increases
4 | C1COCCN1 [Morpholine] | – | increase | increase | – | – | increases | –
5 | CC(=O)c1ncc(C)nc1C [2-Acetyl-3,5-dimethy pyrazine] | – | increase | – | – | increases | – | –
6 | COc1ccc2ncccc2c1 [6-Methoxyquinoline] | increases | increase | increase | increases | increases | – | ratio of basophils in the whole blood cells [11]: increases
7 | Cc1cncs1 [5-Methylthiazole] | increases | – | increase | increases | – | – | ratio of lymphocytes in the whole blood cells [12]: increases
8 | (−)-Ambroxide | – | – | – | – | – | increases | –
9 | CC1OCCC1S (stereo not drawn) [2-Methyl-3-tetrahydrofuranthiol] | increases | increase | – | – | increases | – | –
10 | Cc1oc2ccccc2c1C [2,3-Dimethylbenzofuran] | – | – | – | increases | increases | – | ratio of basophils in the whole blood cells [11]: increases
11 | CC(=O)c1cccc(C)n1 [2-Acetyl-6-methylpyridine] | – | – | – | – | – | increases | –
12 | CC(=O)c1ccc(C)o1 [2-Acetyl-5-methylfuran] | – | – | – | increases | increases | – | ratio of basophils in the whole blood cells [11]: increases
13 | C[C@]12C[C@H](O)[C@H]3[C@@H](CCC4=CC(=O)CC[C@@]43C)[C@@H]1CC[C@@H]2C(=O)CO [Corticosterone, reference compound] | – | – | – | – | – | – | number of monocytes [1, 14]: did not increase significantly; number of neutrophils [4, 14]: decreased
14 | O=Cc1cncs1 [5-Formylthiazole] | – | – | – | – | – | – | ratio of lymphocytes in the whole blood cells [12]: increases
15 | Cc1cccnc1C [2,3-dimethylpyridine] | – | – | – | – | – | increases | –
16 | O=S1(=O)CCN(c2ccccc2)CC1 [4-Phenyl-thiomorpholine-1,1-dioxide] | – | increase | – | – | – | increases | –
17 | Cc1ccc(C)s1 [2,5-Dimethylthiophene] | – | – | increase | – | increases | increases | –
